Assay results as given in paper PMC4254624 (Biochemical and biophysical research communications, 2014).
Read-outs that look alike come from different tables or passages of the source.

Assays:
EcSecA intrinsic ATPase [1] = molecular target: T1, EcSecA intrinsic ATPase (Escherichia coli, UniProt P10408); assay: Intrinsic ATPase activity assay of EcSecA; assay type: biochemical; conditions: for Ki: read-out: apparent Ki, intrinsic ATPase; for Km / Vmax: Intrinsic
EcSecA membrane ATPase = EcSecA membrane ATPase (Escherichia coli, UniProt P10408); assay: Membrane ATPase activity assay of EcSecA with urea-washed BA13 membrane; assay type: biochemical
Chain of EcSecA membrane ATPase (P10408 whole entry): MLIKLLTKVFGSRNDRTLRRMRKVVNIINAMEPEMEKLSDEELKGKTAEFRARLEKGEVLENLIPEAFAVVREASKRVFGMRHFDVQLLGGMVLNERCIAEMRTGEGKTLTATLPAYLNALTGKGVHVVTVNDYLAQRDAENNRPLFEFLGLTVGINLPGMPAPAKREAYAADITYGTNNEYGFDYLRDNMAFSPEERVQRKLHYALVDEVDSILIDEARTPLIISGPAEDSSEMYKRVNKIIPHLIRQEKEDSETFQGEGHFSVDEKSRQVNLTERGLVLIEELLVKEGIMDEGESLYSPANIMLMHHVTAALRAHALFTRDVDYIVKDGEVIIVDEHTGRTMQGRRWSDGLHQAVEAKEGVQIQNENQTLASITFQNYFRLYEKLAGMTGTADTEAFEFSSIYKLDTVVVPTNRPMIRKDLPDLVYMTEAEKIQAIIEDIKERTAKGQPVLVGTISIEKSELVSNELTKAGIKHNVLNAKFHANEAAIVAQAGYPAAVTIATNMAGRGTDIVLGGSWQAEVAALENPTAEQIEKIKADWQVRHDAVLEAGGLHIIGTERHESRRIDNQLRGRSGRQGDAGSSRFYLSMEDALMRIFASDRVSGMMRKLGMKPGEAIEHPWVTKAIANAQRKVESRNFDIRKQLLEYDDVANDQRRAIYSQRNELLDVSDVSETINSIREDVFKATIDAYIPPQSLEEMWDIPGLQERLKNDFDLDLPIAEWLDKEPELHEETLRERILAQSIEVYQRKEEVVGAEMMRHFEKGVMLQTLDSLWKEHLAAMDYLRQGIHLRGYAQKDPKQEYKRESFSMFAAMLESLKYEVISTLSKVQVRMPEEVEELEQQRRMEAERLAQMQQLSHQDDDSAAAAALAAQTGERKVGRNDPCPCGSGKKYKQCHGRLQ

[2] = molecular target: EcSecA translocation ATPase (Escherichia coli, UniProt P10408); assay: Translocation ATPase activity assay of EcSecA with BA13 membrane and proOmpA; assay type: biochemical; conditions: for Km / Vmax: Translocation
Chain of EcSecA translocation ATPase (P10408 whole entry): as above

BsSecA intrinsic ATPase = BsSecA intrinsic ATPase (Bacillus subtilis, UniProt P28366); assay: Intrinsic ATPase activity assay of BsSecA; assay type: biochemical
Chain of BsSecA intrinsic ATPase (P28366 whole entry): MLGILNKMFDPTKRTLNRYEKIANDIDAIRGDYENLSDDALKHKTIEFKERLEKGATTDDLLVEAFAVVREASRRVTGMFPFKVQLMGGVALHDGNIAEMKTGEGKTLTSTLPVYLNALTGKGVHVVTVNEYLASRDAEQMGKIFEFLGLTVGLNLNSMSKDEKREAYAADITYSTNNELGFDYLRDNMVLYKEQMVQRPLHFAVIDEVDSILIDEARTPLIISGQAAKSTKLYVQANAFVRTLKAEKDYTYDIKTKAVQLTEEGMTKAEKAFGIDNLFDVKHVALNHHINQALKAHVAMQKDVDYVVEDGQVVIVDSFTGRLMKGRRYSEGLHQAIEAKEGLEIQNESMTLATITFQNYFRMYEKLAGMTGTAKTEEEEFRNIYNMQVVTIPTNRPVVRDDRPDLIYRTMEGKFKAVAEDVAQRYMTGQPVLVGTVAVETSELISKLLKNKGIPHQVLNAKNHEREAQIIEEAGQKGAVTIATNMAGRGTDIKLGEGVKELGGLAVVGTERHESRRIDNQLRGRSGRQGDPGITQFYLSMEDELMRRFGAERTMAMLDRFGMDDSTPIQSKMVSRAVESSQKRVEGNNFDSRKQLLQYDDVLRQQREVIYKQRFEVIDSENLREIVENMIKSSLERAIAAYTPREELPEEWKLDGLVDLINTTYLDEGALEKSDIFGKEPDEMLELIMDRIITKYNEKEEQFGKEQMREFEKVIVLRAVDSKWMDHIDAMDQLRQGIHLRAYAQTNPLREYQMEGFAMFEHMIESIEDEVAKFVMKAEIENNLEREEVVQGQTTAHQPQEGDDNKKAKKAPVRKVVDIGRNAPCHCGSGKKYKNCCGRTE

EcSecA = EcSecA (Escherichia coli, UniProt P10408); assay: SecA ion channel activity in Xenopus oocytes; assay type: cell-based; conditions: for IC50: read-out: IC50 inhibition of SecA channel activity in oocytes, EcSecA
Chain of EcSecA (P10408 whole entry): as the sequence (P10408 whole entry) above

BsSecA = BsSecA (Bacillus subtilis, UniProt P28366); assay: SecA ion channel activity in Xenopus oocytes; assay type: cell-based; conditions: for IC50: read-out: IC50 inhibition of SecA channel activity in oocytes, BsSecA
Chain of BsSecA (P28366 whole entry): as the sequence (P28366 whole entry) above

PaSecA = PaSecA (Pseudomonas aeruginosa, UniProt Q9LCT3); assay: SecA ion channel activity in Xenopus oocytes; assay type: cell-based, P. aeruginosa; conditions: for IC50: read-out: IC50 inhibition of SecA channel activity in oocytes, PaSecA
Chain of PaSecA (Q9LCT3 whole entry): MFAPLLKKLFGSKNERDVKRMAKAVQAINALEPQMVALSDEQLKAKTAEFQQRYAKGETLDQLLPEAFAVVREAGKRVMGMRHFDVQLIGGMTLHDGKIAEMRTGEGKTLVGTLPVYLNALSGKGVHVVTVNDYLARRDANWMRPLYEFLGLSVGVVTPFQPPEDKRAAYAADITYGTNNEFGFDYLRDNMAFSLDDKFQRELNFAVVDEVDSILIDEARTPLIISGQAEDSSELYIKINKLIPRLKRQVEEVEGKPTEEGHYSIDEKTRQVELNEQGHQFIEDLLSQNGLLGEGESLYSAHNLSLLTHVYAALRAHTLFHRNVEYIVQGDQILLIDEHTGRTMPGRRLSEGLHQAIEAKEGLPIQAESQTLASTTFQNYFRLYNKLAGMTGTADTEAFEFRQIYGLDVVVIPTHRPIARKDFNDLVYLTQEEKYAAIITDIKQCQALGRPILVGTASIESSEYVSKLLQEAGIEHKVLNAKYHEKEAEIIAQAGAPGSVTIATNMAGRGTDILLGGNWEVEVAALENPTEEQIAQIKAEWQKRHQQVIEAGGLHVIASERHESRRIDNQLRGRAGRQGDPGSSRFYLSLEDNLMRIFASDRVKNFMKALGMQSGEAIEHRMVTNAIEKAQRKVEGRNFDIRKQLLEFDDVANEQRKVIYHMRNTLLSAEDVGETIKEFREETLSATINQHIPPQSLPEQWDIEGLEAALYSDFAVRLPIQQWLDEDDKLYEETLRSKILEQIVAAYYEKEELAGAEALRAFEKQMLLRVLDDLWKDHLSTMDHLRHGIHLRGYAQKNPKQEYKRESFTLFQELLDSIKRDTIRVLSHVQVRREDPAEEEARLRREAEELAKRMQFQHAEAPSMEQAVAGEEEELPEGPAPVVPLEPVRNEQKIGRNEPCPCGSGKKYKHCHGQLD

EcSecA intrinsic ATPase [3] = molecular target: T1, EcSecA intrinsic ATPase; conditions: cited from earlier work
[4] = high ATP concentrations (above 1 mM), non-competitive
[5] = low ATP concentrations (below 0.6 mM), competitive

T1 sequence (P10408 whole entry): as the sequence (P10408 whole entry) above

SMILES: O.O=C([O-])c1ccccc1-c1c2cc(I)c(=O)c(I)c-2oc2c(I)c([O-])c(I)cc12.[Na+].[Na+] [EB, Erythrocin B]
- mechanism of inhibition of intrinsic ATPase versus ATP (EcSecA intrinsic ATPase [1]; high ATP concentrations): non-competitively
- mechanism of inhibition of intrinsic ATPase versus ATP (EcSecA intrinsic ATPase [1]; low ATP concentrations): competitively
- Ki (EcSecA intrinsic ATPase [1]; [4]): 34.3 ± 8.08 µM
- Ki (EcSecA intrinsic ATPase [1]; [5]): 4.06 ± 0.32 µM

SMILES: O=C1OC2(c3cc(I)c(O)c(I)c3Oc3c2cc(I)c(O)c3I)c2c(Cl)c(Cl)c(Cl)c(Cl)c21 [RB, Rose Bengal]
- Km (EcSecA intrinsic ATPase [1]; High [ATP], RB 20 μM): 1680 µM
- Vmax (EcSecA intrinsic ATPase [1]; High [ATP], RB 20 μM): 6.08 molePi·moleSecA^−1min^−1
- Km (EcSecA intrinsic ATPase [1]; High [ATP], RB 40 μM): 1680 µM
- Vmax (EcSecA intrinsic ATPase [1]; High [ATP], RB 40 μM): 3.99 molePi·moleSecA^−1min^−1
- Km (EcSecA intrinsic ATPase [1]; Low [ATP], RB 20 μM): 250 µM
- Vmax (EcSecA intrinsic ATPase [1]; Low [ATP], RB 20 μM): 3.07±0.16 molePi·moleSecA^−1min^−1
- Km (EcSecA intrinsic ATPase [1]; Low [ATP], RB 40 μM): 460 µM
- Vmax (EcSecA intrinsic ATPase [1]; Low [ATP], RB 40 μM): 3.07±0.16 molePi·moleSecA^−1min^−1
- mechanism of inhibition of intrinsic ATPase versus ATP (EcSecA intrinsic ATPase [1]; high ATP concentrations): non-competitive inhibitor
- mechanism of inhibition of intrinsic ATPase versus ATP (EcSecA intrinsic ATPase [1]; low ATP concentrations): competitive inhibitor
- Ki (EcSecA intrinsic ATPase [1]; [4]): 57.1 ± 3.37 µM
- Ki (EcSecA intrinsic ATPase [1]; [5]): 22.4 ± 3.33 µM
- mechanism of inhibition of membrane ATPase (EcSecA membrane ATPase): mixed-mechanism
- Vmax (EcSecA membrane ATPase; Membrane, RB 2 μM): 13.61 molePi·moleSecA^−1min^−1
- Km (EcSecA membrane ATPase; Membrane, RB 4 μM): 310 µM
- Vmax (EcSecA membrane ATPase; Membrane, RB 4 μM): 8.18 molePi·moleSecA^−1min^−1
- Ki (EcSecA membrane ATPase; read-out: average Ki, membrane ATPase, mixed-mechanism): 1.42 ± 0.22 µM
- Km ([2]; RB 0.75 μM): 180 µM
- Vmax ([2]; RB 0.75 μM): 23.42 molePi·moleSecA^−1min^−1
- Km ([2]; RB 1 μM): 180 µM
- Vmax ([2]; RB 1 μM): 15.06 molePi·moleSecA^−1min^−1
- mechanism of inhibition of translocation ATPase ([2]; broad range of ATP concentrations): only non-competitively
- Ki ([2]; read-out: Ki, translocation ATPase, non-competitive, broad range of ATP concentrations): 0.43 ± 0.02 µM
- mechanism of inhibition of intrinsic ATPase (BsSecA intrinsic ATPase): two-site inhibition depending on the concentration of ATP
- mechanism of inhibition of channel activity (EcSecA; EcSecA-SecYEG-SecDF•YajC liposomes in oocytes): non-competitive inhibition pattern
- mechanism of inhibition of liposome channel activity with ATP (EcSecA; EcSecA-liposomes in oocytes): non-competitive inhibition
- IC50 (EcSecA; BA13 memb): 4.7 ± 0.1 µM
- IC50 (EcSecA; L+SecYEG +SecDF•C): 3.8 ± 0.3 µM
- IC50 (EcSecA; RE-13 memb +SecYEG-DF•C): 4.4 ± 0.1 µM
- mechanism of inhibition of liposome channel activity with ATP (BsSecA; BsSecA-liposomes in oocytes): non-competitive inhibition
- IC50 (BsSecA; BA13 memb): 5.8 ± 0.3 µM
- IC50 (BsSecA; L+SecYEG +SecDF•C): 4.5 ± 0.2 µM
- IC50 (BsSecA; RE-13 memb +SecYEG-DF•C): 5.2 ± 0.3 µM
- mechanism of inhibition of liposome channel activity with ATP (PaSecA; PaSecA-liposomes in oocytes): non-competitive inhibition
- IC50 (PaSecA; BA13 memb): 5.1 ± 0.2 µM
- IC50 (PaSecA; L+SecYEG +SecDF•C): 2 ± 0.3 µM
- IC50 (PaSecA; Lipo): 0.3 ± 0.2 µM
- IC50 (PaSecA; RE-13 memb +SecYEG): 5.1 ± 0.2 µM
- IC50 (PaSecA; RE-13 memb +SecYEG-DF•C): 5.1 ± 0.1 µM

SMILES: [N-]=[N+]=[N-].[Na+] [azide, sodium azide]
- effect on SecA intrinsic ATPase activity (EcSecA intrinsic ATPase [3]): does not affect
